The text below walks through data of PubChem BioAssay AID328 (DTP/NCI, 2004).

This test deals with BDF1 mice, P388 leukemia ip, median survival T/C. Put plainly: NCI In Vivo Anticancer Drug Screen. Data for tumor model P388 Leukemia (intraperitoneal) in B6D2F1 (BDF1) mice. The note with it: endpoint: median survival time, higher = longer survival. The essentials:
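T/C = treated-group survival ÷ vehicle-control survival; tumour transplanted into mice before dosing.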

[1] abbreviates: dose: 25.0 mg/kg/injection, schedule: Q01DX009 (ip), vehicle: saline.
Setting [2] is: dose: 50.0 mg/kg/injection, schedule: Q01DX009 (ip), vehicle: saline.
Where [3] appears, read: dose: 100.0 mg/kg/injection, schedule: Q04DX003 (ip), vehicle: saline.
Setting [4] is: dose: 100.0 mg/kg/injection, schedule: Q01DX009 (ip), vehicle: saline.
Setting [5] is: dose: 50.0 mg/kg/injection, schedule: Q01DX009 (ip), vehicle: saline with Tween-80.
Where [6] appears, read: dose: 100.0 mg/kg/injection, schedule: Q01DX009 (ip), vehicle: saline with Tween-80.
Setting [7] is: dose: 200.0 mg/kg/injection, schedule: Q01DX009 (ip), vehicle: saline with Tween-80.
[8] abbreviates: dose: 200.0 mg/kg/injection, schedule: Q01DX009 (ip), vehicle: Klucel (hydroxypropylcellulose) (HPC).
The mark [9] stands for this setting: dose: 100.0 mg/kg/injection, schedule: Q04DX003 (ip), vehicle: Klucel (hydroxypropylcellulose) (HPC).
Setting [10] is: dose: 200.0 mg/kg/injection, schedule: Q04DX003 (ip), vehicle: Klucel (hydroxypropylcellulose) (HPC).
The mark [11] stands for this setting: dose: 400.0 mg/kg/injection, schedule: Q04DX003 (ip), vehicle: Klucel (hydroxypropylcellulose) (HPC).

Inconclusive results and toxic doses are left out.

Turning to `N=C(N)SCc1ccc(C(=O)Oc2ccc([N+](=O)[O-])cc2)cc1`, the T/C was 104 % of control under setting [1]; 90 % of control under setting [2]; 110 % of control (dose: 50.0 mg/kg/injection, schedule: Q04DX003 (ip), vehicle: saline); 110 % of control under setting [3].
Take `Nc1cc(Cl)c2[nH]cnc2n1`: the T/C was 114 % of control (dose: 6.25 mg/kg/injection, schedule: Q01DX009 (ip), vehicle: saline); 100 % of control (dose: 12.5 mg/kg/injection, schedule: Q01DX009 (ip), vehicle: saline); 110 % of control under setting [1]; 105 % of control (dose: 50.0 mg/kg/injection, schedule: Q01DX005 (ip), vehicle: distilled water + Tween-80); 115 % of control under setting [2]; 100 % of control under setting [4].
With `Clc1ccc2c(c1)-c1ccccc1C1=NCCN12`, the T/C was 110 % of control (dose: 2.5 mg/kg/injection, schedule: Q04DX003 (ip), vehicle: Klucel (hydroxypropylcellulose) (HPC)); 100 % of control (dose: 4.4 mg/kg/injection, schedule: Q04DX003 (ip), vehicle: Klucel (hydroxypropylcellulose) (HPC)); 95 % of control (dose: 5.0 mg/kg/injection, schedule: Q01DX009 (ip), vehicle: Klucel (hydroxypropylcellulose) (HPC)); 100 % of control (dose: 5.0 mg/kg/injection, schedule: Q04DX003 (ip), vehicle: Klucel (hydroxypropylcellulose) (HPC)); 91 % of control (dose: 6.6 mg/kg/injection, schedule: Q04DX003 (ip), vehicle: Klucel (hydroxypropylcellulose) (HPC)); 113 % of control (dose: 10.0 mg/kg/injection, schedule: Q01DX009 (ip), vehicle: Klucel (hydroxypropylcellulose) (HPC)). The T/C is 95 % of control (dose: 10.0 mg/kg/injection, schedule: Q04DX003 (ip), vehicle: Klucel (hydroxypropylcellulose) (HPC)); 91 % of control (dose: 15.0 mg/kg/injection, schedule: Q04DX003 (ip), vehicle: Klucel (hydroxypropylcellulose) (HPC)); 113 % of control (dose: 20.0 mg/kg/injection, schedule: Q01DX009 (ip), vehicle: Klucel (hydroxypropylcellulose) (HPC)).
On to `CCCC(C(CC)CO)C(CC)C(O)C(CC)CO` (configuration not stated), for which the T/C reads like this: (dose: 50.0 mg/kg/injection, schedule: Q01DX005 (ip), vehicle: saline with Tween-80) 100 % of control; (dose: 100.0 mg/kg/injection, schedule: Q01DX005 (ip), vehicle: saline with Tween-80) 94 % of control; (dose: 200.0 mg/kg/injection, schedule: Q01DX005 (ip), vehicle: saline with Tween-80) 99 % of control.
For `O=C1c2ccccc2C(=O)N1c1ccc(S(=O)(=O)c2ccc(N3C(=O)c4ccccc4C3=O)cc2)cc1`, the T/C is 104 % of control (dose: 87.5 mg/kg/injection, schedule: Q01DX009 (ip), vehicle: saline with Tween-80); 100 % of control (dose: 175.0 mg/kg/injection, schedule: Q01DX009 (ip), vehicle: saline with Tween-80); 98 % of control (dose: 350.0 mg/kg/injection, schedule: Q01DX009 (ip), vehicle: saline with Tween-80).
As for `C[N+](C)(C)CCC[n+]1ccc(CCn2ccc3ccccc32)cc1`, the T/C runs as follows: (dose: 25.0 mg/kg/injection, schedule: Q01DX001 (ip), vehicle: saline) 100 % of control; (dose: 50.0 mg/kg/injection, schedule: Q01DX001 (ip), vehicle: saline) 105 % of control; (dose: 100.0 mg/kg/injection, schedule: Q01DX001 (ip), vehicle: saline) 105 % of control.
On to `O=C(O)c1cc(I)cc(I)c1`, for which the T/C under setting [3] was 100 % of control; the T/C (dose: 200.0 mg/kg/injection, schedule: Q04DX003 (ip), vehicle: saline) is 100 % of control; the T/C (dose: 400.0 mg/kg/injection, schedule: Q04DX003 (ip), vehicle: saline) is 160 % of control.
In the case of `COc1ccc(C(C(N)=O)N2CCCC2)cc1` (configuration not stated), the T/C is, setting by setting: (dose: 100.0 mg/kg/injection, schedule: Q04DX003 (ip), vehicle: saline with Tween-80) 110 % of control; (dose: 200.0 mg/kg/injection, schedule: Q04DX003 (ip), vehicle: saline with Tween-80) 120 % of control; (dose: 400.0 mg/kg/injection, schedule: Q04DX003 (ip), vehicle: saline with Tween-80) 100 % of control.
Consider `Nc1cc(/C=C/c2ccc([N+](=O)[O-])cc2)nc2ccccc12`, for which the T/C was 101 % of control (dose: 25.0 mg/kg/injection, schedule: Q04DX002 (ip), vehicle: saline with Tween-80); 88 % of control under setting [5]; 117 % of control (dose: 50.0 mg/kg/injection, schedule: Q04DX002 (ip), vehicle: saline with Tween-80); 94 % of control under setting [6]; 94 % of control under setting [7]; 88 % of control (dose: 200.0 mg/kg/injection, schedule: Q04DX002 (ip), vehicle: saline with Tween-80).
`C=CCN1C(=O)CNC1=O`: the T/C runs as follows: under setting [2], 93 % of control; under setting [4], 100 % of control; (dose: 200.0 mg/kg/injection, schedule: Q01DX009 (ip), vehicle: saline) 101 % of control.
For the compound `CC1(C)OC2C(CO)OC(n3cnc4c(N)ncnc43)C2O1` (configuration not stated), the T/C is 100 % of control (dose: 75.0 mg/kg/injection, schedule: Q04DX003 (ip), vehicle: Klucel (hydroxypropylcellulose) (HPC)) and 100 % of control (dose: 300.0 mg/kg/injection, schedule: Q04DX003 (ip), vehicle: Klucel (hydroxypropylcellulose) (HPC)).
For the compound `C1CCNCC1.O=C([CH-]C(=O)C(F)(F)F)c1ccc2c(c1)C(=O)c1ccccc1-2.O=C([CH-]C(=O)C(F)(F)F)c1ccc2c(c1)C(=O)c1ccccc1-2.O=C([CH-]C(=O)C(F)(F)F)c1ccc2c(c1)C(=O)c1ccccc1-2.O=C([CH-]C(=O)C(F)(F)F)c1ccc2c(c1)C(=O)c1ccccc1-2.[Eu+3]`, the T/C is, setting by setting: (dose: 100.0 mg/kg/injection, schedule: Q01DX009 (ip), vehicle: Klucel (hydroxypropylcellulose) (HPC)) 102 % of control; under setting [8], 102 % of control.
Consider `O=C(OC1COC(Br)C(OC(=O)c2ccccc2)C1OC(=O)c1ccccc1)c1ccccc1` (configuration not stated), for which the T/C reads like this: under setting [9], 100 % of control; under setting [10], 95 % of control; under setting [11], 100 % of control.
With `CC1=COC2CCCCC2O1` (configuration not stated) (tested in a mixture with another compound), the T/C by setting is: (dose: 100.0 mg/kg/injection, schedule: Q01DX009 (ip), vehicle: acetone) 104 % of control; (dose: 200.0 mg/kg/injection, schedule: Q01DX009 (ip), vehicle: acetone) 96 % of control; (dose: 400.0 mg/kg/injection, schedule: Q01DX009 (ip), vehicle: acetone) 96 % of control.
Regarding `CCc1c(-c2ccccc2)[nH]c2ccccc12`, the T/C is 115 % of control under setting [5], 113 % of control under setting [6] and 123 % of control under setting [7].
In the case of `CCCCCCNP(=O)(N1CC1)N1CC1`, the T/C was 168 % of control (dose: 16.5 mg/kg/injection, schedule: Q04DX003 (ip), vehicle: saline with Tween-80); 227 % of control (dose: 25.0 mg/kg/injection, schedule: Q04DX003 (ip), vehicle: saline with Tween-80); 272 % of control (dose: 37.5 mg/kg/injection, schedule: Q04DX003 (ip), vehicle: saline with Tween-80).
Consider `CCCCCCC(=O)CC(SCC)c1ccc(Cl)cc1` (configuration not stated), for which the T/C runs as follows: under setting [5], 98 % of control; under setting [6], 102 % of control; under setting [7], 112 % of control.
As for `CN(C)c1ccc(C=C(C#N)C#N)cc1`, the T/C runs as follows: under setting [9], 100 % of control; under setting [8], 90 % of control; under setting [10], 100 % of control; (dose: 400.0 mg/kg/injection, schedule: Q01DX009 (ip), vehicle: Klucel (hydroxypropylcellulose) (HPC)) 113 % of control; under setting [11], 90 % of control.
